Reference: patent publication US20050261319A1, “Novel 2-amino-4-quinazolinones and 2-amino-4-oxoquinazolones as LXR nuclear receptor binding compounds with partial agonistic properties” (priority 2002, published 2005)

Tests used:
GAL4-LXRa-LBD = target: T1, GAL4-LXRa-LBD (Homo sapiens, UniProt Q13133); assay: Mammalian one hybrid (M1H) luciferase assay in HEK293 cells, LXR alpha LBD; type: cell-based
T1 construct: expressed in transfected cells; host or cells: HEK293
T1 sequence (Q13133 209-447 limits assumed): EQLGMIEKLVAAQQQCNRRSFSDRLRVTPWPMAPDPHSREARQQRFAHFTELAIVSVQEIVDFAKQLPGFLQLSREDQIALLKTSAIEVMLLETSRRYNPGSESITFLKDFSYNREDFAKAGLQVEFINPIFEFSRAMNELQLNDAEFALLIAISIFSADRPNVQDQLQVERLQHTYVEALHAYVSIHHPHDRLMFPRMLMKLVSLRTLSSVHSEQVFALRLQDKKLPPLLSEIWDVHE
Protocol: For TR1040001892, TR1040011382, TR1040002211, and TR1040002212, HEK293 cells are grown in 96 well plates and co-transfected with pFR-luc (Stratagene) and pCMV-BD-LXRa-LBD or pCMV-BD-LXRb-LBD (each 100 ng of plasmid DNA per well). Transfection is carried using Lipfectamine 2000 (Gibco-BRL) according to the manufacturers protocol. The ligand binding domains (LBD) of LXRa and LXRb are cloned into the pCMV-BD-GW (the Gateway Reading Frame Cassette B is cloned as an EcoRV fragment into Sma1 site of pCMV-BD) applying the manufacturer protocols for the Gateway system (Invitrogen). […] The type of assay used here is a mammalian one hybrid (M1 H) assay that is known to those skilled in the art.

[1] = tested on: FAS and SREBP-1c in HepG2 cells; assay: mRNA content of FAS and SREBP-1c in HepG2 cells (TaqMan); type: cell-based
Protocol: THP-1 (3×10^5 cells per dish) cells were seeded in […] RPMI-1640 medium (ATTC, Cat. No. 30-2001) containing 10% FCS (GIBCO) and 100 nM TPA and cultivated at 37° C. in 5% CO2 for 24 or 48 hours. HepG2 (4.5×10^5 cells per dish) were seeded in 24 well dishes in 3 ml DMEM Medium containing 10% FCS (GIBCO) and cultivated at 37° C. in 5% CO2 for 48 hours as indicated in FIG. 8B or until they are approx. 60% confluent.
The medium was then removed and replaced with medium containing 10% charcoal/stripped FCS (Hyclone) for 12 h.
LXR compounds are dissolved in DMSO, with the final solvent concentration never exceeding 0.125%. All treatments are done in triplicates and experiments repeated twice. Total RNA is extracted using the Qiagen Rneasy Mini Kit and treated with DNase (DNA free kit, Ambion). RNA is reverse transcribed with Oligo (dT) primer and real-time reverse transcription PCR (TaqMan) is performed using the ABI Prism 7900HT Sequence Detection System and reagents supplied by Applied Biosystems. mRNA steady state levels are normalised to H3 histone (H3F3A) expression levels.
The sequences of forward primers, reverse primers and TaqMan probes are as follows

Structure (SMILES) | luciferase reporter gene expression mediated through GAL4-LXRa-LBD (GAL4-LXRa-LBD) | upregulation of FAS [1] | upregulation of SREBP-1c [1]
CC(C)n1c(N2C3CC(C)(C)CC2(C)C3)nc2ccc(I)cc2c1=O (stereo not drawn) [formula (10)] | activate luciferase reporter gene expression in a dose dependent manner | – | –
C=CCn1c(N2C3CC(C)(C)CC2(C)C3)nc2ccc(I)cc2c1=O (stereo not drawn) [formula (9)] | activate luciferase reporter gene expression in a dose dependent manner | does not significantly upregulate | much reduced
C=CCn1c(N2[C@@H]3CC(C)(C)C[C@@]2(C)C3)nc2cccc(F)c2c1=O [formula (12)] | activate luciferase reporter gene expression in a dose dependent manner | – | –
CCCn1c(N2[C@@H]3CC(C)(C)C[C@@]2(C)C3)nc2cccc(F)c2c1=O [formula (11)] | activate luciferase reporter gene expression in a dose dependent manner | – | –
